Reference: ChEMBL document CHEMBL4715697, “Synthesis and biological activity of benzamide DNA minor groove binders” (2016)

Assays:
Assay type in all cases: functional
Details in all cases: read-out: Activity
BT-549 = assay: Growth inhibition of human BT-549 cells assessed as cell growth at 10 uM incubated for 48 hrs by sulforhodamine B assay relative to control
NCI-H322M = assay: Growth inhibition of human NCI-H322M cells assessed as cell growth at 10 uM incubated for 48 hrs by sulforhodamine B assay relative to control
SF-268 = assay: Growth inhibition of human SF-268 cells assessed as cell growth at 10 uM incubated for 48 hrs by sulforhodamine B assay relative to control
SK-MEL-2 = assay: Growth inhibition of human SK-MEL-2 cells assessed as cell growth at 10 uM incubated for 48 hrs by sulforhodamine B assay relative to control
MDA-MB-468 = assay: Growth inhibition of human MDA-MB-468 cells assessed as cell growth at 10 uM incubated for 48 hrs by sulforhodamine B assay relative to control
HCC 2998 = assay: Growth inhibition of human HCC 2998 cells assessed as cell growth at 10 uM incubated for 48 hrs by sulforhodamine B assay relative to control
RPMI-8226 = assay: Growth inhibition of human RPMI-8226 cells assessed as cell growth at 10 uM incubated for 48 hrs by sulforhodamine B assay relative to control
RXF 393 = assay: Growth inhibition of human RXF 393 cells assessed as cell growth at 10 uM incubated for 48 hrs by sulforhodamine B assay relative to control
HCT-15 = assay: Growth inhibition of human HCT-15 cells assessed as cell growth at 10 uM incubated for 48 hrs by sulforhodamine B assay relative to control
NCI-H23 = assay: Growth inhibition of human NCI-H23 cells assessed as cell growth at 10 uM incubated for 48 hrs by sulforhodamine B assay relative to control
SK-OV-3 = assay: Growth inhibition of human SK-OV-3 cells assessed as cell growth at 10 uM incubated for 48 hrs by sulforhodamine B assay relative to control
IGROV-1 = assay: Growth inhibition of human IGROV-1 cells assessed as cell growth at 10 uM incubated for 48 hrs by sulforhodamine B assay relative to control
MOLT-4 = assay: Growth inhibition of human MOLT-4 cells assessed as cell growth at 10 uM incubated for 48 hrs by sulforhodamine B assay relative to control
CAKI-1 = assay: Growth inhibition of human CAKI-1 cells assessed as cell growth at 10 uM incubated for 48 hrs by sulforhodamine B assay relative to control
KM12 = assay: Growth inhibition of human KM12 cells assessed as cell growth at 10 uM incubated for 48 hrs by sulforhodamine B assay relative to control
ACHN = assay: Growth inhibition of human ACHN cells assessed as cell growth at 10 uM incubated for 48 hrs by sulforhodamine B assay relative to control
MCF7 = assay: Growth inhibition of human MCF7 cells assessed as cell growth at 10 uM incubated for 48 hrs by sulforhodamine B assay relative to control
HL-60(TB) = assay: Growth inhibition of human HL-60(TB) cells assessed as cell growth at 10 uM incubated for 48 hrs by sulforhodamine B assay relative to control
OVCAR-5 = assay: Growth inhibition of human OVCAR-5 cells assessed as cell growth at 10 uM incubated for 48 hrs by sulforhodamine B assay relative to control
M14 = assay: Growth inhibition of human M14 cells assessed as cell growth at 10 uM incubated for 48 hrs by sulforhodamine B assay relative to control
MDA-MB-435 = assay: Growth inhibition of human MDA-MB-435 cells assessed as cell growth at 10 uM incubated for 48 hrs by sulforhodamine B assay relative to control
SNB-75 = assay: Growth inhibition of human SNB-75 cells assessed as cell growth at 10 uM incubated for 48 hrs by sulforhodamine B assay relative to control
CCRF-CEM = assay: Growth inhibition of human CCRF-CEM cells assessed as cell growth at 10 uM incubated for 48 hrs by sulforhodamine B assay relative to control
NCI-H522 = assay: Growth inhibition of human NCI-H522 cells assessed as cell growth at 10 uM incubated for 48 hrs by sulforhodamine B assay relative to control
SNB-19 = assay: Growth inhibition of human SNB-19 cells assessed as cell growth at 10 uM incubated for 48 hrs by sulforhodamine B assay relative to control
OVCAR-3 = assay: Growth inhibition of human OVCAR-3 cells assessed as cell growth at 10 uM incubated for 48 hrs by sulforhodamine B assay relative to control
U-251 = assay: Growth inhibition of human U-251 cells assessed as cell growth at 10 uM incubated for 48 hrs by sulforhodamine B assay relative to control
DU-145 = assay: Growth inhibition of human DU-145 cells assessed as cell growth at 10 uM incubated for 48 hrs by sulforhodamine B assay relative to control
HCT-116 = assay: Growth inhibition of human HCT-116 cells assessed as cell growth at 10 uM incubated for 48 hrs by sulforhodamine B assay relative to control
T47D = assay: Growth inhibition of human T47D cells assessed as cell growth at 10 uM incubated for 48 hrs by sulforhodamine B assay relative to control
PC-3 = assay: Growth inhibition of human PC-3 cells assessed as cell growth at 10 uM incubated for 48 hrs by sulforhodamine B assay relative to control
UO-31 = assay: Growth inhibition of human UO-31 cells assessed as cell growth at 10 uM incubated for 48 hrs by sulforhodamine B assay relative to control
Malme-3M = assay: Growth inhibition of human Malme-3M cells assessed as cell growth at 10 uM incubated for 48 hrs by sulforhodamine B assay relative to control
COLO 205 = assay: Growth inhibition of human COLO 205 cells assessed as cell growth at 10 uM incubated for 48 hrs by sulforhodamine B assay relative to control
OVCAR-8 = assay: Growth inhibition of human OVCAR-8 cells assessed as cell growth at 10 uM incubated for 48 hrs by sulforhodamine B assay relative to control
SF-539 = assay: Growth inhibition of human SF-539 cells assessed as cell growth at 10 uM incubated for 48 hrs by sulforhodamine B assay relative to control
HOP-62 = assay: Growth inhibition of human HOP-62 cells assessed as cell growth at 10 uM incubated for 48 hrs by sulforhodamine B assay relative to control
HT-29 = assay: Growth inhibition of human HT-29 cells assessed as cell growth at 10 uM incubated for 48 hrs by sulforhodamine B assay relative to control
UACC-62 = assay: Growth inhibition of human UACC-62 cells assessed as cell growth at 10 uM incubated for 48 hrs by sulforhodamine B assay relative to control
K562 = assay: Growth inhibition of human K562 cells assessed as cell growth at 10 uM incubated for 48 hrs by sulforhodamine B assay relative to control

SMILES: CCN(CC)CC(=O)Nc1ccc(C(=O)Nc2cc(CO)cc(NC(C)=O)c2)cc1
- growth at 10 µM (BT-549): 112%
- growth at 10 µM (NCI-H322M): 105%
- growth at 10 µM (SF-268): 107%
- growth at 10 µM (SK-MEL-2): 107%
- growth at 10 µM (MDA-MB-468): 99.4%
- growth at 10 µM (HCC 2998): 98.6%
- growth at 10 µM (RPMI-8226): 126%
- growth at 10 µM (RXF 393): 110%
- growth at 10 µM (HCT-15): 100%
- growth at 10 µM (NCI-H23): 104%
- growth at 10 µM (SK-OV-3): 107%
- growth at 10 µM (IGROV-1): 129%
- growth at 10 µM (MOLT-4): 120%
- growth at 10 µM (CAKI-1): 106%
- growth at 10 µM (KM12): 107%
- growth at 10 µM (ACHN): 108%
- growth at 10 µM (MCF7): 100%
- growth at 10 µM (HL-60(TB)): 107%
- growth at 10 µM (OVCAR-5): 107%
- growth at 10 µM (M14): 109%
- growth at 10 µM (MDA-MB-435): 96.3%
- growth at 10 µM (SNB-75): 110%
- growth at 10 µM (CCRF-CEM): 98.2%
- growth at 10 µM (NCI-H522): 105%
- growth at 10 µM (SNB-19): 98%
- growth at 10 µM (OVCAR-3): 116%
- growth at 10 µM (U-251): 108%
- growth at 10 µM (DU-145): 119%
- growth at 10 µM (HCT-116): 109%
- growth at 10 µM (T47D): 99.1%
- growth at 10 µM (PC-3): 116%
- growth at 10 µM (UO-31): 97.8%
- growth at 10 µM (Malme-3M): 103%
- growth at 10 µM (COLO 205): 118%
- growth at 10 µM (OVCAR-8): 107%
- growth at 10 µM (SF-539): 99.7%
- growth at 10 µM (HOP-62): 101%
- growth at 10 µM (HT-29): 110%
- growth at 10 µM (UACC-62): 97%

SMILES: CCN(CC)CC(=O)Nc1cccc(C(=O)Nc2cc(CO)cc(NC(C)=O)c2)c1
- growth at 10 µM (BT-549): 105%
- growth at 10 µM (NCI-H322M): 117%
- growth at 10 µM (SF-268): 113%
- growth at 10 µM (SK-MEL-2): 99.8%
- growth at 10 µM (MDA-MB-468): 95.7%
- growth at 10 µM (HCC 2998): 95.8%
- growth at 10 µM (RXF 393): 102%
- growth at 10 µM (HCT-15): 103%
- growth at 10 µM (NCI-H23): 98.4%
- growth at 10 µM (SK-OV-3): 104%
- growth at 10 µM (IGROV-1): 130%
- growth at 10 µM (K562): 105%
- growth at 10 µM (MOLT-4): 111%
- growth at 10 µM (CAKI-1): 112%
- growth at 10 µM (KM12): 110%
- growth at 10 µM (ACHN): 105%
- growth at 10 µM (MCF7): 88.9%
- growth at 10 µM (HL-60(TB)): 105%
- growth at 10 µM (OVCAR-5): 105%
- growth at 10 µM (M14): 103%
- growth at 10 µM (MDA-MB-435): 110%
- growth at 10 µM (SNB-75): 91%
- growth at 10 µM (CCRF-CEM): 97.2%
- growth at 10 µM (NCI-H522): 93.8%
- growth at 10 µM (SNB-19): 105%
- growth at 10 µM (OVCAR-3): 126%
- growth at 10 µM (U-251): 103%
- growth at 10 µM (DU-145): 125%
- growth at 10 µM (HCT-116): 99.6%
- growth at 10 µM (T47D): 92.9%
- growth at 10 µM (PC-3): 102%
- growth at 10 µM (UO-31): 96.6%
- growth at 10 µM (Malme-3M): 102%
- growth at 10 µM (COLO 205): 112%
- growth at 10 µM (OVCAR-8): 115%
- growth at 10 µM (SF-539): 98.7%
- growth at 10 µM (HOP-62): 96.9%
- growth at 10 µM (HT-29): 103%
- growth at 10 µM (UACC-62): 106%

SMILES: CC(=O)Nc1cc(CCl)cc(NC(=O)c2ccc(C(=O)NCCCN(C)C)cc2)c1
- growth at 10 µM (BT-549): 105%
- growth at 10 µM (NCI-H322M): 116%
- growth at 10 µM (SF-268): 106%
- growth at 10 µM (SK-MEL-2): 102%
- growth at 10 µM (MDA-MB-468): 92.9%
- growth at 10 µM (HCC 2998): 90%
- growth at 10 µM (RXF 393): 116%
- growth at 10 µM (HCT-15): 104%
- growth at 10 µM (NCI-H23): 97.8%
- growth at 10 µM (SK-OV-3): 107%
- growth at 10 µM (IGROV-1): 136%
- growth at 10 µM (K562): 106%
- growth at 10 µM (MOLT-4): 105%
- growth at 10 µM (CAKI-1): 102%
- growth at 10 µM (KM12): 107%
- growth at 10 µM (ACHN): 105%
- growth at 10 µM (MCF7): 81.5%
- growth at 10 µM (HL-60(TB)): 104%
- growth at 10 µM (OVCAR-5): 97.5%
- growth at 10 µM (M14): 107%
- growth at 10 µM (MDA-MB-435): 105%
- growth at 10 µM (SNB-75): 86%
- growth at 10 µM (CCRF-CEM): 103%
- growth at 10 µM (NCI-H522): 98.7%
- growth at 10 µM (SNB-19): 117%
- growth at 10 µM (OVCAR-3): 106%
- growth at 10 µM (U-251): 103%
- growth at 10 µM (DU-145): 112%
- growth at 10 µM (HCT-116): 103%
- growth at 10 µM (T47D): 97.6%
- growth at 10 µM (PC-3): 109%
- growth at 10 µM (UO-31): 103%
- growth at 10 µM (Malme-3M): 109%
- growth at 10 µM (COLO 205): 111%
- growth at 10 µM (OVCAR-8): 111%
- growth at 10 µM (SF-539): 92.8%
- growth at 10 µM (HOP-62): 106%
- growth at 10 µM (HT-29): 103%
- growth at 10 µM (UACC-62): 114%
